Experimental data from ChEMBL document CHEMBL4507295 (2021).

Legend:
[1] = target: Serine/threonine-protein kinase D2 (Homo sapiens) (UniProt Q9BZL6); conditions: Compound concentration 1000.0 nM
[2] = target: Serine/threonine-protein kinase Sgk3 (Homo sapiens) (UniProt Q96BR1); conditions: Compound concentration 1000.0 nM
[3] = target: Rho-associated protein kinase 1 (Homo sapiens) (UniProt Q13464); conditions: Compound concentration 1000.0 nM
[4] = target: Tyrosine-protein kinase receptor Tie-1 (Homo sapiens) (UniProt P35590); conditions: Compound concentration 1000.0 nM
[5] = target: Cyclin-dependent kinase 4 (Homo sapiens) (UniProt P11802); conditions: Compound concentration 1000.0 nM
[6] = target: Phosphatidylinositol 3-kinase C2 domain-containing subunit gamma (Homo sapiens) (UniProt O75747); conditions: Compound concentration 1000.0 nM
[7] = target: Focal adhesion kinase 1 (Homo sapiens) (UniProt Q05397); conditions: Compound concentration 1000.0 nM
[8] = target: Testis-specific serine/threonine-protein kinase 1 (Homo sapiens) (UniProt Q9BXA7); conditions: Compound concentration 1000.0 nM
[9] = tested on: Receptor-type tyrosine-protein kinase FLT3 (Homo sapiens), P36888 [D835V]; conditions: Compound concentration 1000.0 nM
[10] = target: Insulin-like growth factor 1 receptor (Homo sapiens) (UniProt P08069); conditions: Compound concentration 1000.0 nM
[11] = target: G protein-coupled receptor kinase 4 (Homo sapiens) (UniProt P32298); conditions: Compound concentration 1000.0 nM
[12] = target: Homeodomain-interacting protein kinase 3 (Homo sapiens) (UniProt Q9H422); conditions: Compound concentration 1000.0 nM
[13] = target: Casein kinase I isoform alpha-like (Homo sapiens) (UniProt Q8N752); conditions: Compound concentration 1000.0 nM
[14] = target: MAP/microtubule affinity-regulating kinase 3 (Homo sapiens) (UniProt P27448); conditions: Compound concentration 1000.0 nM
[15] = target: Serine/threonine-protein kinase OSR1 (Homo sapiens) (UniProt O95747); conditions: Compound concentration 1000.0 nM
[16] = target: Tyrosine-protein kinase Srms (Homo sapiens) (UniProt Q9H3Y6); conditions: Compound concentration 1000.0 nM
[17] = target: T1, 5-hydroxytryptamine receptor 3A (Homo sapiens) (UniProt P46098); conditions: Compound concentration 10.0 uM
T1 sequence (whole entry): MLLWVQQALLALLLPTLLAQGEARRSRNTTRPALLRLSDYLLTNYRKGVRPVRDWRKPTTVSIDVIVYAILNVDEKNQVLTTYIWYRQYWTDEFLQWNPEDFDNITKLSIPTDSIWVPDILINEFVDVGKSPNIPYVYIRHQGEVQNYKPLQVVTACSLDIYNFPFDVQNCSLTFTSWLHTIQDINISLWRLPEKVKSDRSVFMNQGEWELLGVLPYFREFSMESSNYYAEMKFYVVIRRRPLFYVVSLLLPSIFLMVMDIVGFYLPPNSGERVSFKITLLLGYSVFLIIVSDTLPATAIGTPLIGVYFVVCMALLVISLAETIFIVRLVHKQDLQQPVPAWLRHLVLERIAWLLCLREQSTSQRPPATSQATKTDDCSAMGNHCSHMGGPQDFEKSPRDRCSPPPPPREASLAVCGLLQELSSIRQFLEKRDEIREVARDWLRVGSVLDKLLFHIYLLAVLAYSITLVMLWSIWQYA

[18] = target: Beta-2 adrenergic receptor (Homo sapiens) (UniProt P07550); conditions: Compound concentration 10.0 uM
[19] = target: Protein kinase C eta type (Homo sapiens) (UniProt P24723); conditions: Compound concentration 1000.0 nM
[20] = target: Peripheral plasma membrane protein CASK (Homo sapiens) (UniProt O14936); conditions: Compound concentration 1000.0 nM
[21] = target: 5'-AMP-activated protein kinase catalytic subunit alpha-1 (Homo sapiens) (UniProt Q13131); conditions: Compound concentration 1000.0 nM
[22] = target: Macrophage-stimulating protein receptor (Homo sapiens) (UniProt Q04912); conditions: Compound concentration 1000.0 nM
[23] = target: Serine/threonine-protein kinase MRCK alpha (Homo sapiens) (UniProt Q5VT25); conditions: Compound concentration 1000.0 nM
[24] = target: Mitogen-activated protein kinase 3 (Homo sapiens) (UniProt P27361); conditions: Compound concentration 1000.0 nM
[25] = target: STE20/SPS1-related proline-alanine-rich protein kinase (Homo sapiens) (UniProt Q9UEW8); conditions: Compound concentration 1000.0 nM
[26] = target: MAP kinase-activated protein kinase 2 (Homo sapiens) (UniProt P49137); conditions: Compound concentration 1000.0 nM
[27] = target: Protein-tyrosine kinase 2-beta (Homo sapiens) (UniProt Q14289); conditions: Compound concentration 1000.0 nM
[28] = tested on: Serine/threonine-protein kinase B-raf (Homo sapiens), P15056 [V600E]; conditions: Compound concentration 1000.0 nM
[29] = target: Activin receptor type-2A (Homo sapiens) (UniProt P27037); conditions: Compound concentration 1000.0 nM
[30] = target: Serine/threonine-protein kinase Chk1 (Homo sapiens) (UniProt O14757); conditions: Compound concentration 1000.0 nM
[31] = target: Sodium-dependent dopamine transporter (Homo sapiens) (UniProt Q01959); conditions: Compound concentration 10.0 uM
[32] = target: Serine/threonine-protein kinase MARK1 (Homo sapiens) (UniProt Q9P0L2); conditions: Compound concentration 1000.0 nM
[33] = target: Serine/threonine-protein kinase PAK 6 (Homo sapiens) (UniProt Q9NQU5); conditions: Compound concentration 1000.0 nM
[34] = target: Serine/threonine-protein kinase Nek9 (Homo sapiens) (UniProt Q8TD19); conditions: Compound concentration 1000.0 nM
[35] = target: Dual specificity mitogen-activated protein kinase kinase 4 (Homo sapiens) (UniProt P45985); conditions: Compound concentration 1000.0 nM
[36] = target: Serine/threonine-protein kinase PAK 5 (Homo sapiens) (UniProt Q9P286); conditions: Compound concentration 1000.0 nM
[37] = target: Tyrosine-protein kinase JAK3 (Homo sapiens) (UniProt P52333); conditions: Compound concentration 1000.0 nM
[38] = target: Cyclin-dependent kinase-like 5 (Homo sapiens) (UniProt O76039); conditions: Compound concentration 1000.0 nM
[39] = target: Interferon-induced, double-stranded RNA-activated protein kinase (Homo sapiens) (UniProt P19525); conditions: Compound concentration 1000.0 nM
Chain of Interferon-induced, double-stranded RNA-activated protein kinase (Homo sapiens) (P19525 whole entry): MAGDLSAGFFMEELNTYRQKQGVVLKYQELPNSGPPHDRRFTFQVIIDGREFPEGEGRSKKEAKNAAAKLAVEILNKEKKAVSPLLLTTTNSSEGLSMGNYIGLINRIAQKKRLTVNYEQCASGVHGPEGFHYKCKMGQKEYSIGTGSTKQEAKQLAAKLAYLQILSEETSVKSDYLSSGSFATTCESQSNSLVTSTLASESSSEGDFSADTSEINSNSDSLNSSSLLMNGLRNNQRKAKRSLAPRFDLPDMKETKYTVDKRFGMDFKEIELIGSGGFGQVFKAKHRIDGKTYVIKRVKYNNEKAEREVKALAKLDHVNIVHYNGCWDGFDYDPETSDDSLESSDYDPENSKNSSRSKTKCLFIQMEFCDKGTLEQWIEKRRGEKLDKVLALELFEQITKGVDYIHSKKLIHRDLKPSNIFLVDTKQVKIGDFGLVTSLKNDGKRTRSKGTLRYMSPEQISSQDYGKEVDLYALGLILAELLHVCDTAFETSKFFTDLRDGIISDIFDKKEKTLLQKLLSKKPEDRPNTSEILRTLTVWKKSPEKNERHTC

Chain of Protein kinase C eta type (Homo sapiens) (P24723 whole entry): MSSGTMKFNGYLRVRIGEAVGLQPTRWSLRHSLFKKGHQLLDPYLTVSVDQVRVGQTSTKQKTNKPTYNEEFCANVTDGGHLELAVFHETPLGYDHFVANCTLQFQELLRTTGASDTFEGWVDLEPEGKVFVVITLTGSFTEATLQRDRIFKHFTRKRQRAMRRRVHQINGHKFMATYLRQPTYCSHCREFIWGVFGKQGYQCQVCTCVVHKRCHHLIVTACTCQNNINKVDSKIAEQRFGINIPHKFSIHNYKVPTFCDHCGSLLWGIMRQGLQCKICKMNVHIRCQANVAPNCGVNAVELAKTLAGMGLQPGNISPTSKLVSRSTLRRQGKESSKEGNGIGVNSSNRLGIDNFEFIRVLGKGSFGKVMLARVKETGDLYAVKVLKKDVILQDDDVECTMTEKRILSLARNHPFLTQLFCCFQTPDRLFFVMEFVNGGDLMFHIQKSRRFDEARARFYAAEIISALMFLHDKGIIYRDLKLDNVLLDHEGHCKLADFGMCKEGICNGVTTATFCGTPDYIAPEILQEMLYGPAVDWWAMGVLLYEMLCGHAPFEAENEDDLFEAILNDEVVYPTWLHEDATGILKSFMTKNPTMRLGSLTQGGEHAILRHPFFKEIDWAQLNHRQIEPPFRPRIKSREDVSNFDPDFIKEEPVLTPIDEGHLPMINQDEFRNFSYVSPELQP
Chain of Dual specificity mitogen-activated protein kinase kinase 4 (Homo sapiens) (P45985 whole entry): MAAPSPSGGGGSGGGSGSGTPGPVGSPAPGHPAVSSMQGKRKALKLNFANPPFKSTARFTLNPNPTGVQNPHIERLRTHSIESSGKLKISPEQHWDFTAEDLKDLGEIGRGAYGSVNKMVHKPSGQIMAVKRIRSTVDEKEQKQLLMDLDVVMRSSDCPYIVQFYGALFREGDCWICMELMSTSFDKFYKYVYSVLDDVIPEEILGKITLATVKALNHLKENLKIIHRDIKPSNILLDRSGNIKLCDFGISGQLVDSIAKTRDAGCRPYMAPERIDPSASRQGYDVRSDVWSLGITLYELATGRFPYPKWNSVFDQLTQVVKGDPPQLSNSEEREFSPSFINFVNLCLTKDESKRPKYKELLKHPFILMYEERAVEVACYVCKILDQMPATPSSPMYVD
Chain of Serine/threonine-protein kinase PAK 5 (Homo sapiens) (Q9P286 whole entry, looked up): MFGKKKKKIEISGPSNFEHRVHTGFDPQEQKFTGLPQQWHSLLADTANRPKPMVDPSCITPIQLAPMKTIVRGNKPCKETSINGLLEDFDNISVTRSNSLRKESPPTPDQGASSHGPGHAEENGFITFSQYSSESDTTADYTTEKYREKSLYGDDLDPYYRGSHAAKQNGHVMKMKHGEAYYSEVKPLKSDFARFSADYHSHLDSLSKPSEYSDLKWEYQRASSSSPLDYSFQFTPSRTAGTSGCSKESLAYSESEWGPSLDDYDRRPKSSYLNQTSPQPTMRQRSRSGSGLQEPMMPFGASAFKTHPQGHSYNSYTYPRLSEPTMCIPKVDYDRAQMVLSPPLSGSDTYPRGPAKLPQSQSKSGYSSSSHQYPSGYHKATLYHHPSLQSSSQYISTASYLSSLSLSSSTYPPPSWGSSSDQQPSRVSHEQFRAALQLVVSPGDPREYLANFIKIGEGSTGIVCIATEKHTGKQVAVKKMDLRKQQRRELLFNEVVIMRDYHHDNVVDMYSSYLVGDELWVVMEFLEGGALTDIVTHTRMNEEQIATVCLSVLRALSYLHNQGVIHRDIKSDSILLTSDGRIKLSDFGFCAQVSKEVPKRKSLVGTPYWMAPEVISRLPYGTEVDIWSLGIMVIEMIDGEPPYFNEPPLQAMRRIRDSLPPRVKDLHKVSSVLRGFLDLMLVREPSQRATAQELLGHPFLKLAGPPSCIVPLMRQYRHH
Chain of Activin receptor type-2A (Homo sapiens) (P27037 whole entry): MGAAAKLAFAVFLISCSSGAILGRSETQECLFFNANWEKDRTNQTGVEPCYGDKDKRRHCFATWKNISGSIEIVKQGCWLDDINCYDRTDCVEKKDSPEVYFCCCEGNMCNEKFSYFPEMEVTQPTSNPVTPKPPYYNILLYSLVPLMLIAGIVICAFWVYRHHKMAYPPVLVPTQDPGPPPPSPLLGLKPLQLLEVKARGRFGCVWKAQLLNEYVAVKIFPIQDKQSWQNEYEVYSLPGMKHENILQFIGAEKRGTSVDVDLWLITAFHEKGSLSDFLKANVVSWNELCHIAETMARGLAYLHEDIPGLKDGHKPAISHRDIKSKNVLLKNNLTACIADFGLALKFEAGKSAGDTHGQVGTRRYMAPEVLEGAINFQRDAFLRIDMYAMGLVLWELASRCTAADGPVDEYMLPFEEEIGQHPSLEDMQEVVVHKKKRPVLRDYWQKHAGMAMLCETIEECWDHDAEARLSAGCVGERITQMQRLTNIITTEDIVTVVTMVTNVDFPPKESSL
Chain of Rho-associated protein kinase 1 (Homo sapiens) (Q13464 2-1354 limits assumed): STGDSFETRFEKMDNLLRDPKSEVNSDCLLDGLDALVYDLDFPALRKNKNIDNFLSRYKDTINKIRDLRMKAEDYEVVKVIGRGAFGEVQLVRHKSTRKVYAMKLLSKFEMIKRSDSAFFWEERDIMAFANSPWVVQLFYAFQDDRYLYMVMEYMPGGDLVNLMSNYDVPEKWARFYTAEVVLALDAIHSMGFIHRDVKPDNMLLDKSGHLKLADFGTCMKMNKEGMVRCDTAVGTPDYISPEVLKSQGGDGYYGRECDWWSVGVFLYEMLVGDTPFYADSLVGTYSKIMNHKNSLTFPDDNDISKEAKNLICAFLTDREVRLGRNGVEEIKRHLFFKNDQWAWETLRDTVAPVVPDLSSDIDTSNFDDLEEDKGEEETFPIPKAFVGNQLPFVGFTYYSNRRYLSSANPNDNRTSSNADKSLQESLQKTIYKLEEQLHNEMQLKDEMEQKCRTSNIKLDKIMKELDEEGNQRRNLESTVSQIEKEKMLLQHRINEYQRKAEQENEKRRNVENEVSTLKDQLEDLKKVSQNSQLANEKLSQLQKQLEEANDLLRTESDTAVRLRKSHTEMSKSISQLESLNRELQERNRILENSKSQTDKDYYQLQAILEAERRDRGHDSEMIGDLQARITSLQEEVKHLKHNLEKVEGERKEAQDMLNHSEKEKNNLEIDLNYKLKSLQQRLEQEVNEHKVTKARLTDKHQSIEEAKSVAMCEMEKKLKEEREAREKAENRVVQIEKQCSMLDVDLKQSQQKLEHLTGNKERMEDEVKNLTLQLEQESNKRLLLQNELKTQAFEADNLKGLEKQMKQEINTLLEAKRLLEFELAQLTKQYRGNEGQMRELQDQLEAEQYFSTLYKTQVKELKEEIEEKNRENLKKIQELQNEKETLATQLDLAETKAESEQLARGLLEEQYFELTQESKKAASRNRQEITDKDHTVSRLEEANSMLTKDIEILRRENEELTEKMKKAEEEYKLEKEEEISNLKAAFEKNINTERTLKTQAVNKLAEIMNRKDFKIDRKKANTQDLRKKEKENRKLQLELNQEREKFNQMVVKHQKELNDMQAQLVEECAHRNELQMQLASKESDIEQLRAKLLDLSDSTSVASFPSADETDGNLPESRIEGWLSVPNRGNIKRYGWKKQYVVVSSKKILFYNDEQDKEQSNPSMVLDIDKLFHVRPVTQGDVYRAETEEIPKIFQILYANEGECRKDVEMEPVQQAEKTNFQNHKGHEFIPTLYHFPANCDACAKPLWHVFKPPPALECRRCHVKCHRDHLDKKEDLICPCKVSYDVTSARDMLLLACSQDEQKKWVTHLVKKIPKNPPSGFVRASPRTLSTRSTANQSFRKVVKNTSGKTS
Chain of Serine/threonine-protein kinase Chk1 (Homo sapiens) (O14757 whole entry): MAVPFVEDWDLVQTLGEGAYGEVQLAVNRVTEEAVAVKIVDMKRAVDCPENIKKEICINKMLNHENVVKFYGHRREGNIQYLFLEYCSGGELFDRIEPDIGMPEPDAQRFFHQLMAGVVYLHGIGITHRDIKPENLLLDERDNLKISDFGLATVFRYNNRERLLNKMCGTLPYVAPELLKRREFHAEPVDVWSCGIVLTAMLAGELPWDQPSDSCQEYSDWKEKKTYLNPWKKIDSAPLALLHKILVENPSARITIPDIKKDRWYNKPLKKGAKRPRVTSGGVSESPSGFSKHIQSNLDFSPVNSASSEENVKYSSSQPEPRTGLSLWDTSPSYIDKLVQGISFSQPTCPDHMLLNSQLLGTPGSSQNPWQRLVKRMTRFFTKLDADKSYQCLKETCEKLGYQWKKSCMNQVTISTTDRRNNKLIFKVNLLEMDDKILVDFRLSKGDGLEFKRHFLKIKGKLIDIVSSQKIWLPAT
Chain of Casein kinase I isoform alpha-like (Homo sapiens) (Q8N752 whole entry, canonical isoform): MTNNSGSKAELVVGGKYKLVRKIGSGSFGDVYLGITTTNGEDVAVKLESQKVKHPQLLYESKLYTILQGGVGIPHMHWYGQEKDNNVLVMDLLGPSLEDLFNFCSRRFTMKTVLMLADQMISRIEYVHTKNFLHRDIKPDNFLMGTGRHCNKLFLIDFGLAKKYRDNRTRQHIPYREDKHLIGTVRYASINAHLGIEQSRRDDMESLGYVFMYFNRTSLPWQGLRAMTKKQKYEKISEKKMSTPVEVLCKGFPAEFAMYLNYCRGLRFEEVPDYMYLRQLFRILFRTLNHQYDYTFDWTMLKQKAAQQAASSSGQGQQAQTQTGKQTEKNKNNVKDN

N#CC1(c2ccccn2)CCN(Cc2cc(C(=O)O)c(=O)n3ccccc23)CC1 [MSD-M1PAM]
inactive: residual activity [1] 99% | residual activity [2] 74% | residual activity [3] 86% | residual activity [4] 100% | residual activity [5] 82% | residual activity [6] 97% | residual activity [7] 100% | residual activity [8] 74% | residual activity [9] 100% | residual activity [10] 89% | residual activity [11] 68% | residual activity [12] 84% | residual activity [13] 100% | residual activity [14] 100% | residual activity [15] 79% | residual activity [16] 93% | inhibition [17] 12% | inhibition [18] 13.9% | residual activity [19] 100% | residual activity [20] 100% | residual activity [21] 100% | residual activity [22] 100% | residual activity [23] 100% | residual activity [24] 100% | residual activity [25] 56% | residual activity [26] 75% | residual activity [27] 100% | residual activity [28] 100% | residual activity [29] 95% | residual activity [30] 100% | inhibition [31] -7.27% | residual activity [32] 94% | residual activity [33] 100% | residual activity [34] 100% | residual activity [35] 85% | residual activity [36] 96% | residual activity [37] 95% | residual activity [38] 100% | residual activity [39] 95%

N#CC1(c2ccccn2)CCN(Cc2cc(C(=O)N3CCCC3)c(=O)n3ccccc23)CC1
inactive: residual activity [1] 85% | residual activity [2] 82% | residual activity [3] 100% | residual activity [4] 98% | residual activity [5] 98% | residual activity [6] 73% | residual activity [7] 89% | residual activity [8] 98% | residual activity [9] 98% | residual activity [10] 88% | residual activity [11] 86% | residual activity [12] 97% | residual activity [13] 91% | residual activity [14] 87% | residual activity [15] 100% | residual activity [16] 100% | inhibition [17] 6.59% | inhibition [18] 15.8% | residual activity [19] 100% | residual activity [20] 100% | residual activity [21] 100% | residual activity [22] 100% | residual activity [23] 84% | residual activity [24] 91% | residual activity [25] 75% | residual activity [26] 84% | residual activity [27] 86% | residual activity [28] 99% | residual activity [29] 78% | residual activity [30] 90% | inhibition [31] 18.6% | residual activity [32] 100% | residual activity [33] 100% | residual activity [34] 99% | residual activity [35] 83% | residual activity [36] 93% | residual activity [37] 100% | residual activity [38] 100% | residual activity [39] 100%
